ChEMBL document CHEMBL5120746, “Novel 5-fluorouracil sensitizers for colorectal cancer therapy: Design and synthesis of S1P receptor 2 (S1PR2) antagonists” (Eur J Med Chem, 2022)
The source made the active and inactive calls. The calls are words filed in the database; no cut-off is given here.

Tests used:
[1] = system: SW620/5-FU; experiment: Antitumor activity against human SW620/5-FU cells xenografted in SPF nude mouse assessed as reduction in tumor weight at 7.5 mg/kg, iv QD for 21 days in presence of 5-fluorouracil; assay type: functional; design: scale not given: the % may be the effect or the level left; details: time 21 day
[2] = Half life in Sprague-Dawley rat plasma at 1 mg/kg, iv measured up to 24 hrs by HPLC-MS/MS analysis; assay type: ADME, organism-based; details: in vivo
[3] = Apparent volume of distribution in Sprague-Dawley rat plasma at 1 mg/kg, iv measured up to 24 hrs by HPLC-MS/MS analysis; assay type: ADME, organism-based; details: in vivo
[4] = system: SW620/5-FU; experiment: Antitumor activity against human SW620/5-FU cells xenografted in SPF nude mouse assessed as reduction in tumor weight at 15 mg/kg, iv QD for 21 days in presence of 5-fluorouracil; assay type: functional; design: scale not given: the % may be the effect or the level left; details: time 21 day
[5] = AUC (0 to t) in Sprague-Dawley rat plasma at 1 mg/kg, iv measured up to 24 hrs by HPLC-MS/MS analysis; assay type: ADME, organism-based; design: dose 1 mg/kg, time < 24 hrs, route iv
[6] = AUC (0 to infinity) in Sprague-Dawley rat plasma at 1 mg/kg, iv measured up to 24 hrs by HPLC-MS/MS analysis; assay type: ADME, organism-based; design: dose 1 mg/kg, time < 24 hrs, route iv
[7] = molecular target: Sphingosine 1-phosphate receptor 2 (Homo sapiens, UniProt O95136); experiment: Antagonist activity at S1PR2 in human SW620/5-FU cells assessed as reduction of DPD-catalyzed 5-FU degradation by measuring intracellular 5-FU level at 20 uM measured after 24 hrs by HPLC-UV analysis; assay type: functional, cell-based; details: filed as antagonist
[8] = molecular target: ATP-dependent translocase ABCB1 (Homo sapiens, UniProt P08183); experiment: Reversal of Pgp-mediated paclitaxel resistance in human LCC6MDR cells assessed as P-gp modulating activity by measuring relative fold at 1 uM; assay type: cell-based
[9] = Initial drug concentration in Sprague-Dawley rat blood at 1 mg/kg, iv measured up to 24 hrs by HPLC-MS/MS analysis; assay type: ADME, organism-based
[10] = system: HCT-116; experiment: Reversal of 5-FU resistance against 5-FU resistant DPD expressed human HCT-116 cells assessed as reduction in cell viability incubated for 48 hrs in presence of 5-FU by MTT assay; assay type: functional, cell-based; details: HCT-116, 48 h
[11] = system: HCT-116; experiment: Downregulation of DPD expression in DPD expressed human HCT-116 cells measured after 12 hrs by Western blot analysis; assay type: functional, cell-based; details: dose 5-40 µM, DDE = dose-dependent effect
[12] = Half life in Sprague-Dawley rat blood at 1 mg/kg, iv measured up to 24 hrs by HPLC-MS/MS analysis; assay type: ADME, organism-based
[13] = system: HCT-116; experiment: Antitumor activity against DPD expressed human HCT-116 cells xenografted in SPF nude mouse assessed as tumor growth inhibition at 15 mg/kg, iv QD for 20 days and measured every 4 days in presence of 5-fluorouracil; assay type: functional; details: HCT-116, 480 h, time 20 day, read-out: TGI
[14] = system: NCM460; experiment: Cytotoxicity against human NCM460 cells assessed as reduction in cell viability at 5 to 80 uM; assay type: toxicity, cell-based; details: ncm460, 80 µM, dose 5-80 µM
[15] = system: SW620/5-FU; experiment: Reversal of 5-FU resistance against human SW620/5-FU cells assessed as reduction in cell viability incubated for 48 hrs in presence of 5-FU by MTT assay; assay type: functional, cell-based
[16] = Initial drug concentration in Sprague-Dawley rat plasma at 1 mg/kg, iv measured up to 24 hrs by HPLC-MS/MS analysis; assay type: ADME, organism-based
[17] = MRT (0 to infinity) in Sprague-Dawley rat blood at 1 mg/kg, iv measured up to 24 hrs by HPLC-MS/MS analysis; assay type: ADME, organism-based
[18] = Clearance in Sprague-Dawley rat blood at 1 mg/kg, iv measured up to 24 hrs by HPLC-MS/MS analysis; assay type: ADME, organism-based
[19] = MRT (0 to t) in Sprague-Dawley rat plasma at 1 mg/kg, iv measured up to 24 hrs by HPLC-MS/MS analysis; assay type: ADME, organism-based
[20] = system: Mus musculus; experiment: Downregulation of DPD expression in liver of SPF nude mouse xenografted with human SW620/5-FU cells at 15 to 30 mg/kg, iv QD for 21 days in presence of 5-fluorouracil by Western blot analysis; assay type: functional, organism-based; details: dose 15-30 mg/kg, time 21.0 day
[21] = AUC (0 to t) in Sprague-Dawley rat blood at 1 mg/kg, iv measured up to 24 hrs by HPLC-MS/MS analysis; assay type: ADME, organism-based; design: dose 1 mg/kg, time < 24 hrs, route iv
[22] = Downregulation of S1PR2 mRNA expression level in DPD expressed human HCT-116 cells at 20 uM measured after 24 hrs by qRT-PCR analysis; assay type: functional
[23] = MRT (0 to t) in Sprague-Dawley rat blood at 1 mg/kg, iv measured up to 24 hrs by HPLC-MS/MS analysis; assay type: ADME, organism-based
[24] = AUC (0 to infinity) in Sprague-Dawley rat blood at 1 mg/kg, iv measured up to 24 hrs by HPLC-MS/MS analysis; assay type: ADME, organism-based; design: dose 1 mg/kg, time < 24 hrs, route iv
[25] = system: NCM460; experiment: Cytotoxicity against human NCM460 cells assessed as reduction in cell viability at 5 to 80 uM in presence of 5-fluorouracil; assay type: toxicity, cell-based; details: ncm460, 80 µM, dose 5-80 µM
[26] = system: SW620/5-FU; experiment: Antitumor activity against human SW620/5-FU cells xenografted in SPF nude mouse assessed as reduction in tumor weight at 15 mg/kg, iv QD for 21 days; assay type: functional; design: scale not given: the % may be the effect or the level left; details: time 21 day
[27] = system: Mus musculus; experiment: Downregulation of DPD expression in tumor of SPF nude mouse xenografted with human SW620/5-FU cells at 7.5 to 15 mg/kg, iv QD for 21 days by immunohistochemical analysis; assay type: functional, organism-based; details: dose 7.5-15 mg/kg, time 21.0 day
[28] = system: Mus musculus; experiment: Downregulation of DPD expression in tumor of SPF nude mouse xenografted with human SW620/5-FU cells administered intravenously QD for 21 days by Western blot analysis; assay type: functional; details: dose 7.5-15 mg/kg, route iv, time 21.0 day, DDE = dose-dependent effect
[29] = Downregulation of S1PR2 mRNA expression level in human SW620/5-FU cells at 20 uM measured after 24 hrs by qRT-PCR analysis; assay type: functional
[30] = Downregulation of DPD expression in tumor of SPF nude mouse xenografted with human SW620/5-FU cells at 30 mg/kg, iv QD for 21 days in presence of 5-fluorouracil by Western blot analysis; assay type: functional; details: time 21 day
[31] = system: SW620/5-FU; experiment: Antitumor activity against human SW620/5-FU cells xenografted in SPF nude mouse assessed as tumor growth inhibition at 15 mg/kg, iv QD for 21 days and measured every 4 days in presence of 5-fluorouracil; assay type: functional; details: 504 h, time 21 day, read-out: TGI
[32] = Clearance in Sprague-Dawley rat plasma at 1 mg/kg, iv measured up to 24 hrs by HPLC-MS/MS analysis; assay type: ADME, organism-based; details: in vivo
[33] = system: SW620/5-FU; experiment: Antitumor activity against human SW620/5-FU cells xenografted in SPF nude mouse assessed as reduction in tumor weight at 7.5 mg/kg, iv QD for 21 days; assay type: functional; design: scale not given: the % may be the effect or the level left; details: time 21 day
[34] = MRT (0 to infinity) in Sprague-Dawley rat plasma at 1 mg/kg, iv measured up to 24 hrs by HPLC-MS/MS analysis; assay type: ADME, organism-based

ATP-dependent translocase ABCB1, sequence (P08183 whole entry): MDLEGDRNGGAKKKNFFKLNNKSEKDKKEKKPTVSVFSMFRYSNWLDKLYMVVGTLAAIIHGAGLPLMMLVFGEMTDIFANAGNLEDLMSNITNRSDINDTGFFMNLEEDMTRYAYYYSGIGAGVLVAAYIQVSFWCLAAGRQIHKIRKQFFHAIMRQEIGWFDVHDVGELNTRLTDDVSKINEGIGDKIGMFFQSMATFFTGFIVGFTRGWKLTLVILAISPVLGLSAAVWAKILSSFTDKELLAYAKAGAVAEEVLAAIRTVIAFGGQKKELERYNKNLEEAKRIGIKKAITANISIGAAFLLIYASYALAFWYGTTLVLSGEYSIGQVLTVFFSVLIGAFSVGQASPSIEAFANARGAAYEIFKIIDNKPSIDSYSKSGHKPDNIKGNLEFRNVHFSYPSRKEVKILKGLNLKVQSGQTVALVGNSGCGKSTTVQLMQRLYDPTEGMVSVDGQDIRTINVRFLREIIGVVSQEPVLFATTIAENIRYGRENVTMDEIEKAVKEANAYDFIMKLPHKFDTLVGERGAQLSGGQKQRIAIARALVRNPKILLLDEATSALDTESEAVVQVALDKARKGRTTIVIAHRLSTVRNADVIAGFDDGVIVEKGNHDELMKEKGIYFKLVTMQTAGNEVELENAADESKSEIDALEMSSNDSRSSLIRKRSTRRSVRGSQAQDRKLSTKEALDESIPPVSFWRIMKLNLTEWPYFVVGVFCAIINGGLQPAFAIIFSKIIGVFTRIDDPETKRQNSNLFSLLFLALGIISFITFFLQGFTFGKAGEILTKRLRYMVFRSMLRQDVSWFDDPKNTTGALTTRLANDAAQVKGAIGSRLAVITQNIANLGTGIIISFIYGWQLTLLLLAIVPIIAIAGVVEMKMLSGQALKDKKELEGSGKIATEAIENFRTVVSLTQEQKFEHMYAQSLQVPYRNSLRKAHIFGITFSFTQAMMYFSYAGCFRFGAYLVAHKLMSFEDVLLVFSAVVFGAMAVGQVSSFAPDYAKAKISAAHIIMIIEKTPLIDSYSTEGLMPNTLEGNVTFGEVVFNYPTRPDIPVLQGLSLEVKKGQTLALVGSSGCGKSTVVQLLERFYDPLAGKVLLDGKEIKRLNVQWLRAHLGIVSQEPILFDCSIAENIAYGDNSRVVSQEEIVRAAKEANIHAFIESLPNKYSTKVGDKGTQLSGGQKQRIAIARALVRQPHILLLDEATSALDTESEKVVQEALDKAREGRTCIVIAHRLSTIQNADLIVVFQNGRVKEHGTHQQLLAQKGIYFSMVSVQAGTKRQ
Sphingosine 1-phosphate receptor 2, sequence (O95136 whole entry): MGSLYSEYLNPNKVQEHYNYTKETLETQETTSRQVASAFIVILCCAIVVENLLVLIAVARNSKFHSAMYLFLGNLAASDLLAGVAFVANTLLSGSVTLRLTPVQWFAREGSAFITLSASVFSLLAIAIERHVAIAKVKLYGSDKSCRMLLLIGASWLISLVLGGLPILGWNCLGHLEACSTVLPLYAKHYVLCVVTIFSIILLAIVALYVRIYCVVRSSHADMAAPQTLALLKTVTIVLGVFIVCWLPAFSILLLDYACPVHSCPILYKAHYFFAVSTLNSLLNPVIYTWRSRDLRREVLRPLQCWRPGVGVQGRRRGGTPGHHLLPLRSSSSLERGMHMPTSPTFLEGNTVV

Structure (SMILES): Cn1ncc2c(-c3ccc(F)cc3)cc(NNC(=O)Nc3cc(Cl)nc(Cl)c3)nc21
- Activity [1]: 47.79%
- t1/2 [2]: 4.4 h
- Vd(app) [3]: 2 L/kg
- Activity [4]: 51.72%
- AUC(0-t) at 24 h [5]: 10100 ng·h/mL
- AUC(0-inf) [6]: 11700 ng·h/mL
- Activity [7]: 7.8 µM
- fold change (FC) [8]: 1.4
- C0 at 24 h [9]: 4970 ng/mL
- EC50 [10]: 8.21 µM
- Activity [11]: Dde
- half-life [12]: 6 h
- inhibition in vivo at 15 mg/kg [13]: 70.1%
- Activity [14]: Toxic
- EC50 [15]: 9.15 µM
- C0 at 24 h [16]: 4040 ng/mL
- MRT inf [17]: 8.5 h
- clearance [18]: 1.5 mL/min/kg
- MRT last at 24 h [19]: 7.6 h
- Activity [20]: Active
- AUC(0-t) at 24 h [21]: 10300 ng·h/mL
- Activity [22]: 25%
- MRT last at 24 h [23]: 7.9 h
- AUC(0-inf) [24]: 11200 ng·h/mL
- Activity [25]: Toxic
- Activity [26]: 12.34%
- Activity [27]: Active
- Activity [28]: Dde
- Activity [29]: 25%
- Activity [30]: 0.05
- inhibition in vivo at 15 mg/kg [31]: 52%
- CL [32]: 1.5 mL/min/kg
- Activity [33]: 8.68%
- MRT inf [34]: 8.3 h
